Source: paper PMC10939774 (Antiviral research, 2024)

How the values were obtained:
HepG2.2.15 cells [1] = assay: HBsAg production from HepG2.2.15 cells; format: cell-based, hepatitis B virus; conditions: 10 μM, 7 days of culture
HepG2-NTCP cells = assay: Cell viability by WST-8 assay in HepG2-NTCP cells; conditions: 10 μM, 7 days, absorbance 450 nm
HBV genotype C = assay: HBV infection of human primary hepatocytes; format: cell-based, hepatitis B virus; conditions: 10 μM virus treatment; day 12 after infection; P < 0.0001 vs Ctn
HepG2.2.15 cells [2] = conditions: 10 μM, 7 days of culture
HepG2.2.15-derived HBV = HepG2.2.15-derived HBV infection of HepG2-NTCP cells, HBsAg in culture medium; format: cell-based, hepatitis B virus; conditions: 10 μM, HBsAg on Day 12 post-infection
HBV = conditions: patients; ref Bogomolov et al., 2016; cited from earlier work

Compound | HBsAg level in the culture medium of HepG2.2.15 cells compared to Ctn-treated cells (HepG2.2.15 cells [1]) | Cell viability, percentage of Ctn-treated cells (HepG2-NTCP cells) [%] | HBV DNA in the culture medium of HBV-infected human primary hepatocytes (HBV genotype C) | HBeAg level in HBV-infected human primary hepatocytes (HBV genotype C) | Viability of treated HepG2.2.15 cells (HepG2.2.15 cells [2]) [%] | Effect on HBsAg level of pre-treatment of cells only (HepG2.2.15-derived HBV; HepG2-NTCP cells treated 24 hours before infection) | Effect on HBsAg level of post-treatment of infected cells only (HepG2.2.15-derived HBV; during 11 days of culture after washing) | Improvement in clinical conditions and HBV DNA and HBsAg levels (HBV)
CC[C@H](C)[C@H](NC(=O)[C@H](CCCCN)NC(=O)[C@H](CCC(=O)O)NC(=O)[C@H](CCCCN)NC(=O)[C@H](CO)NC(=O)[C@H](CCCCN)NC(=O)[C@H](CCCNC(=N)N)NC(=O)[C@H](Cc1ccccc1)NC(=O)[C@H](Cc1ccccc1)NC(=O)[C@H](CC(=O)O)NC(=O)CNC(=O)[C@H](CC(C)C)NC(=O)[C@@H](N)CC(C)C)C(=O)NCC(=O)N[C@@H](CCCCN)C(=O)N[C@@H](CCC(=O)O)C(=O)N[C@@H](Cc1ccccc1)C(=O)N[C@@H](CCCCN)C(=O)N[C@@H](CCCNC(=N)N)C(=O)N[C@H](C(=O)N[C@H](C(=O)N[C@@H](CCC(N)=O)C(=O)N[C@@H](CCCNC(=N)N)C(=O)N[C@H](C(=O)N[C@@H](CCCCN)C(=O)N[C@@H](CC(=O)O)C(=O)N[C@@H](Cc1ccccc1)C(=O)N[C@@H](CC(C)C)C(=O)N[C@@H](CCCNC(=N)N)C(=O)N[C@@H](CC(N)=O)C(=O)N[C@@H](CC(C)C)C(=O)N[C@H](C(=O)N1CCC[C@H]1C(=O)N[C@@H](CCCNC(=N)N)C(=O)N[C@H](C(=O)N[C@@H](CCC(=O)O)C(=O)N[C@@H](CO)C(=O)O)[C@@H](C)O)C(C)C)[C@@H](C)CC)C(C)C)[C@@H](C)CC [LL-37] | comparable | 77.6 ± 6.9 | significant reductions | significant reductions | 88.6 | minimal | minimal | 
myrcludex-B |  |  |  |  |  |  |  | limited improvement
